We go through 30 molecules from patent US20220073470A1, “INHIBITORS OF CGAS ACTIVITY AS THERAPEUTIC AGENTS” (BELLBROOK LABS, LLC, priority 2019, published 2022).

Each structure is given as a SMILES string. Where two headings read alike, the source gives them in different places.

The experiment addresses T1, full-length human cGAS (Homo sapiens, UniProt Q8N884).
T1 construct: The cGAS assay was used to screen 100,000 compounds with full-length human cGAS; 6xHis; made in house
Kind of experiment: cGAS enzymatic assay (FP readout), inhibition of cGAS. It is filed as biochemical. Here is the method: Some exemplary compounds of the disclosure were tested for inhibition of cGAS (30 nM). The results are provided in Table 1 where “A” indicates an IC50 of less than 100 nM, “B” indicates an IC50 of greater than 100 nM and less than 500 nM, “C” indicates an IC50 of greater than 500 nM and less than 1 μM, “D” indicates an IC50 of greater than 1 μM and less than 10 μM, and “E” indicates an IC50 of greater than 10 μM.
A homogenous cGAS enzymatic assay was developed with fluorescence polarization (FP) and time-resolved Forster resonance energy transfer (TR-FRET) readouts (FIG. 2A-D). The cGAS assay was used to screen 100,000 compounds with full-length human cGAS (FIG. 2E), resulting in the identification of novel chemotypes, two of which are further developed in a structure-driven hit-to-lead study (Table 3, below). The assay performance was robust, as indicated by respective Z and Z′ values of 0.59 and 0.63 in the screen; compounds with polarization values greater than three SDs from the mean were considered hits; a scatterplot from 10 plates (3,200 compounds) is shown in FIG. 2D.
Potency and MOA studies, including Mn^2+ sensitivity, are performed using the cGAS enzymatic assay. Dose response experiments are used to determine IC50 values under basal conditions (5 mM MgCl2, 100 μM ATP/GTP), and with the addition of physiological levels of Mn (0.2 mM) using human and mouse cGAS. Ligand optimization is driven by potency with the human enzyme; potency with mouse cGAS informs selection of an appropriate disease model for efficacy studies. Competition with ATP and GTP is assessed by comparing basal IC50 values to those in the presence of saturating ATP or GTP, and subsequently confirmed by measuring velocity vs. substrate at varying ATP or GTP levels. Inhibitor residence times (1/koff) are used as a key parameter for prioritizing compounds and driving SAR, because a longer residence time often results from an allosteric mechanism, and can also correlate with improved cellular activity. The cGAS enzymatic assay is used with the jump dilution method to measure residence times (inhibitor dissociation rates), as described for kinases using the very similar ADP assay. Biophysical methods, including SPR and TSAn, are used as orthologous methods for residence time measurements and kd estimates.

Where [1] appears, read: cGAS (30 nM), no Mn2+, read-out: Inhibition cGAS (IC50 class).
The mark [2] stands for this setting: cGAS (30 nM), with Mn2+, read-out: Inhibition cGAS + Mn^2+ (IC50 class).

T1 sequence (Q8N884 whole entry): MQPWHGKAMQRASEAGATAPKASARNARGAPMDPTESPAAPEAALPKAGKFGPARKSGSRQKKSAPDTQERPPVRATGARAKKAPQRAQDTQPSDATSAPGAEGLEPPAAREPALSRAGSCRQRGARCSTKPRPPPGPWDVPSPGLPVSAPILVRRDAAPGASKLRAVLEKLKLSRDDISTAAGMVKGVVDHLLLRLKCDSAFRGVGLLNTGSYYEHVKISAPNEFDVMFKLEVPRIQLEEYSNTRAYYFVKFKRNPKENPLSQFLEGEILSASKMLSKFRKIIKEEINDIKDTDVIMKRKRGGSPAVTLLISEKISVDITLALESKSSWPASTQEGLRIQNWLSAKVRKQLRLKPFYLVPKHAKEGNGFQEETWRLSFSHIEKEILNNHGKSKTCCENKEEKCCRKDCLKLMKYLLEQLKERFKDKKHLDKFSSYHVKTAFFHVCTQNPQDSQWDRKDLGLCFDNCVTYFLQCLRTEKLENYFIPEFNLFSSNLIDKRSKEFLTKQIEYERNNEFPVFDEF

For `Clc1ccc2c(-n3ccnc3)ccnc2c1` [Compound 1, 7-chloro-4-(1H-imidazol-1-yl)quinolone], the IC50 reads like this: (5 mM Mg2+, 0.2 mM Mn2+, read-out: IC50 (5 mM Mg^2+, 0.2 mM Mn^2+)) 0.79 µM; (5 mM Mg2+, no Mn2+, read-out: IC50 (5 mM Mg^2+)) 5.4 µM; under setting [1], 1 to 10 µM; under setting [2], 0.1 to 0.5 µM.

As to `O=C(O)CNc1nc(-c2ccccc2)nc2ccccc12` [Compound 2, (2-phenylquinazolin-4-yl)glycine], the IC50 runs as follows: under setting [1], greater than 10 µM; under setting [2], greater than 10 µM.

For `COc1ccc2nccc(-n3ccnc3)c2c1` [Compound 3, 4-(1H-imidazol-1-yl)-6-methoxyquinoline], the IC50 is, setting by setting: under setting [1], greater than 10 µM; under setting [2], 1 to 10 µM.

On to `Brc1ccc2c(-n3ccnc3)ccnc2c1` [Compound 4, 7-bromo-4-(1H-imidazol-1-yl)quinoline], for which the IC50 was in the range of 1 to 10 µM under setting [1] and 0.1 to 0.5 µM under setting [2].

`Clc1ccc2c(-n3ccnc3)ncnc2c1` [Compound 5, 7-chloro-4-(1H-imidazol-1-yl)quinazoline]: the concentration for half-maximal inhibition (IC50) is greater than 10 µM under setting [1] and greater than 10 µM under setting [2].

For the molecule `COc1ccc2c(-n3ccnc3)ccnc2c1` [Compound 6, 4-(1H-imidazol-1-yl)-7-methoxyquinoline], the IC50 is greater than 10 µM under setting [1] and 1 to 10 µM under setting [2].

For the molecule `Brc1ccc2nccc(-n3ccnc3)c2c1` [Compound 7, 6-bromo-4-(1H-imidazol-1-yl)quinoline], the IC50 by setting is: under setting [1], greater than 10 µM; under setting [2], 1 to 10 µM.

As to `Fc1ccc2c(-n3ccnc3)ccnc2c1` [Compound 8, 7-fluoro-4-(1H-imidazol-1-yl)quinoline], the IC50 was greater than 10 µM under setting [1] and greater than 10 µM under setting [2].

Consider `Nc1ccc2c(-n3ccnc3)ccnc2c1` [Compound 9, 4-(1H-imidazol-1-yl)quinolin-7-amine], for which the IC50 under setting [2] is greater than 10 µM.

Turning to `c1ccc(-c2ccc3nccc(-n4ccnc4)c3c2)cc1` [Compound 10, 4-(1H-imidazol-1-yl)-6-phenylquinoline], under setting [2], the IC50 was in the range of 1 to 10 µM.

Regarding `Nc1ccc2nccc(-n3ccnc3)c2c1` [Compound 11, 4-(1H-imidazol-1-yl)quinolin-6-amine], the IC50 by setting is: under setting [1], greater than 10 µM; under setting [2], 1 to 10 µM.

Turning to `Clc1ccc2c(-n3ccnc3)cc(-c3ccccc3)nc2c1` [Compound 12, 7-chloro-4-(1H-imidazol-1-yl)-2-phenylquinoline], the IC50 reads like this: under setting [1], 1 to 10 µM; under setting [2], 0.1 to 0.5 µM.

Turning to `Clc1ccc2c(-n3ccnc3)c(-c3ccccc3)cnc2c1` [Compound 13, 7-chloro-4-(1H-imidazol-1-yl)-3-phenylquinoline], the IC50 runs as follows: under setting [1], 0.5 to 1 µM; under setting [2], 0.1 to 0.5 µM.

Turning to `COc1cc2c(-n3ccnc3)c(C(=O)O)cnc2cc1Cl` [Compound 15, 7-chloro-4-(1H-imidazol-1-yl)-6-methoxyquinoline-3-carboxylic acid], the IC50 under setting [1] lay within 0.1 to 0.5 µM and the IC50 under setting [2] is less than 0.1 µM.

In the case of `Cc1cc2c(-n3ccnc3)ccnc2cc1Cl` [Compound 16, 7-chloro-4-(1H-imidazol-1-yl)-6-methylquinoline], the IC50 is 1 to 10 µM under setting [1] and 0.5 to 1 µM under setting [2].

Regarding `COc1cc2c(N3CCC[C@H]3C(=O)O)nc(-c3ccccc3)nc2cc1Cl` [Compound 17, (7-chloro-6-methoxy-2-phenylquinazolin-4-yl)-L-proline], the IC50 runs as follows: under setting [1], 1 to 10 µM; under setting [2], greater than 10 µM.

Regarding `Cc1cc(-n2ccnc2)c2ccc(Cl)cc2n1` [Compound 18, 7-chloro-4-(1H-imidazol-1-yl)-2-methylquinoline], the IC50 was in the range of 0.5 to 1 µM under setting [1] and 0.1 to 0.5 µM under setting [2].

Regarding `Nc1cc(-n2ccnc2)c2ccc(Cl)cc2n1` [Compound 19, 7-chloro-4-(1H-imidazol-1-yl)quinolin-2-amine], the IC50 under setting [1] was in the range of 0.5 to 1 µM.

For `COc1cc2c(-n3ccnc3)ccnc2cc1Br` [Compound 22, 7-bromo-4-(1H-imidazol-1-yl)-6-methoxyquinoline], the IC50 reads like this: under setting [1], 0.1 to 0.5 µM; under setting [2], less than 0.1 µM.

Take `CCOc1cc2c(-n3ccnc3)ccnc2cc1Cl` [Compound 23, 7-chloro-6-ethoxy-4-(1H-imidazol-1-yl)quinolone]: the IC50 lay within 0.5 to 1 µM under setting [1] and 0.1 to 0.5 µM under setting [2].

For `Cc1ccc(S(=O)(=O)Nc2ccc(C(=O)Nc3ccncc3)cc2)cc1` [Compound 24, 4-((4-methylphenyl)sulfonamido)-N-(pyridin-4-yl)benzamide], the IC50 under setting [1] is greater than 10 µM.

As for `O=C(Cc1ccccc1)Nc1ccc(C(=O)Nc2ccccc2C(=O)O)cc1` [Compound 25, 2-(4-(2-phenylacetamido)benzamido)benzoic acid], the IC50 reads like this: under setting [1], greater than 10 µM; under setting [2], greater than 10 µM.

On to `O=C(Cc1ccccc1)Nc1ccc(C(=O)Nc2ccc(C(=O)O)cc2)cc1` [Compound 26, 4-(4-(2-phenylacetamido)benzamido)benzoic acid], for which the IC50 reads like this: under setting [1], greater than 10 µM; under setting [2], greater than 10 µM.

Regarding `O=C(Nc1ccc(C(=O)Nc2ccccc2C(=O)O)cc1)c1ccc(I)cc1` [Compound 27, 2-(4-(4-iodobenzamido)benzamido)benzoic acid], the IC50 reads like this: under setting [1], greater than 10 µM; under setting [2], greater than 10 µM.

Consider `O=C(Nc1ccccc1C(=O)O)c1ccc(NC(=O)c2ccccc2Br)cc1` [Compound 28, 2-(4-(2-bromobenzamido)benzamido)benzoic acid], for which the IC50 runs as follows: under setting [1], greater than 10 µM; under setting [2], greater than 10 µM.

On to `COc1ccc(CC(=O)Nc2cccc(C(=O)Nc3ccccc3C(=O)O)c2)cc1` [Compound 29, 2-(3-(2-(4-methoxyphenyl)acetamido)benzamido)benzoic acid], for which the IC50 runs as follows: under setting [1], greater than 10 µM; under setting [2], greater than 10 µM.

For `COc1ccccc1CC(=O)Nc1cccc(C(=O)Nc2ccccc2C(=O)O)c1` [Compound 30, 2-(3-(2-(2-methoxyphenyl)acetamido)benzamido)benzoic acid], the IC50 under setting [1] was greater than 10 µM.

In the case of `O=C(NCc1ccccc1)c1nc2[nH]c3c(c(=O)n2n1)CCC3` [Compound 31, N-benzyl-8-oxo-5,6,7,8-tetrahydro-4H-cyclopenta[d][1,2,4]triazolo[1,5-a]pyrimidine-2-carboxamide], the IC50 under setting [1] is greater than 10 µM.

For `O=C(O)[C@@H](Cc1ccccc1)Nc1ncnc2c1CCCC2` [Compound 32, (5,6,7,8-tetrahydroquinazolin-4-yl)-D-phenylalanine], the IC50 under setting [1] was greater than 10 µM and the IC50 under setting [2] was greater than 10 µM.

Consider `CCN(CC)CCCC(C)Nc1c2ccc(Cl)cc2nc2ccc(OC)cc12` (stereo not shown) [quinacrine, reference compound], for which, for the setting “Mn2+ at physiological concentration (200 μM)”, the “Effect of Mn^2+ on potency against cGAS” value is “significantly less potent”.
